Data from patent publication US11912660B2, “S6K1 protein kinase inhibitors as cancer therapeutics” (Xavier University of Louisiana, priority 2020, dated 2024).
Read-outs that look alike come from different tables or passages of the source.

Assays:
Experiment in all cases: SelectScreen kinase panel screening
Type in all cases: biochemical
AURKA (Aurora A) = AURKA (Aurora A) (Homo sapiens (Human), UniProt O14965)
From the text: (§1) The complete list of the kinases given in Table 1 and their details can be found on the ThermoFisher website for Biochemical Kinase assays (thermofisher.com/us/en/home/industrial/pharma-biopharma/drug-discovery-development/target-and-lead-identification-and-validation/kinasebiology.html).

CDK2/cyclin A = CDK2/cyclin A (Homo sapiens (Human), UniProt P24941)
From the text: as §1

EGFR (ErbB1) = EGFR (ErbB1) (Homo sapiens (Human), UniProt P00533)
From the text: as §1

PTK6 (Brk) = PTK6 (Brk) (Homo sapiens (Human), UniProt Q13882)
Chain of PTK6 (Brk) (Q13882 whole entry): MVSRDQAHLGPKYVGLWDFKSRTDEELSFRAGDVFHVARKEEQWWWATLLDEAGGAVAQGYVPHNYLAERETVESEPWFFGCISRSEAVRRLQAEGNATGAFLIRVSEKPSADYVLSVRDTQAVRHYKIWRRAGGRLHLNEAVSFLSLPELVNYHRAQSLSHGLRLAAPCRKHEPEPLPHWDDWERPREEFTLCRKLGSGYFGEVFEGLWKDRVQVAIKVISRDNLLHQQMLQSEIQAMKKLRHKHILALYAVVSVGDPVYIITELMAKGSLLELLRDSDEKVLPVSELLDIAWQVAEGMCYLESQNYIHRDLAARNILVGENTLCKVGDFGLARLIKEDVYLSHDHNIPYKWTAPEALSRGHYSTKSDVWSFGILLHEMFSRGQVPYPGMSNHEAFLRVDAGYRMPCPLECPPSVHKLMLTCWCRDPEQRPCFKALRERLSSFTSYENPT
From the text: as §1

FRAP1 (mTOR) = FRAP1 (mTOR) (Homo sapiens (Human), UniProt P42345)
From the text: as §1

ABL1 = ABL1 (Homo sapiens (Human), UniProt P00519)
From the text: as §1

JAK3 = JAK3 (Homo sapiens (Human), UniProt P52333)
Chain of JAK3 (P52333 whole entry): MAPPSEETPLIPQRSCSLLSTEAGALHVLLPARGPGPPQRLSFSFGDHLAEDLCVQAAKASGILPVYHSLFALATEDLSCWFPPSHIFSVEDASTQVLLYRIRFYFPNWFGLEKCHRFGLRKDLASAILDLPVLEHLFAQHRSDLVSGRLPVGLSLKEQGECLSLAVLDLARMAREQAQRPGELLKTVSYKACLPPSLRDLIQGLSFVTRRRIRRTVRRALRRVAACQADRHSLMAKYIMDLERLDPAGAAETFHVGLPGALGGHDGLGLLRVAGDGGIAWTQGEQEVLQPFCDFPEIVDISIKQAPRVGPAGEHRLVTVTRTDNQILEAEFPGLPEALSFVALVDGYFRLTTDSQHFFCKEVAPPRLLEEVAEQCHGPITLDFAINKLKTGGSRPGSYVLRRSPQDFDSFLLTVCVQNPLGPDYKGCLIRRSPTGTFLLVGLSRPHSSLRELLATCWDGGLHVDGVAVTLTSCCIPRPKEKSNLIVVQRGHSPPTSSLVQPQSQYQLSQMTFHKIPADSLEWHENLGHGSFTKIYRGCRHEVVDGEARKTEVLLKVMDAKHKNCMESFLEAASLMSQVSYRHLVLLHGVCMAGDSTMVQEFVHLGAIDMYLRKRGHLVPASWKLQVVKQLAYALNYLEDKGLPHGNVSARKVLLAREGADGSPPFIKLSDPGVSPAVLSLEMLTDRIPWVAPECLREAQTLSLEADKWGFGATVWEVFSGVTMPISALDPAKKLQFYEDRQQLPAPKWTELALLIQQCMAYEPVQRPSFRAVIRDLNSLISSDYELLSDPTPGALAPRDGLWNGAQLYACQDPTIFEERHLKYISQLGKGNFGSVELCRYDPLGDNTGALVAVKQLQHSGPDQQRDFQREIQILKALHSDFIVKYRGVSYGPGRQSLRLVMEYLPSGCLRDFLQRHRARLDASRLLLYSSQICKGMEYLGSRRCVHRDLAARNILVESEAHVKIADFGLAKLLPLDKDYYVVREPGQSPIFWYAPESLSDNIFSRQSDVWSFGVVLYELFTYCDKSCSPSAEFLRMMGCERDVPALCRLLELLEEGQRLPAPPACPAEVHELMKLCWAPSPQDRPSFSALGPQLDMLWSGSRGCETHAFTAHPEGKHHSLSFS
From the text: as §1

FGFR4 = FGFR4 (Homo sapiens (Human), UniProt P22455)
From the text: as §1

ALK = ALK (Homo sapiens (Human), UniProt Q9UM73)
From the text: as §1

CDK5/p25 = CDK5/p25 (Homo sapiens (Human), UniProt Q00535)
From the text: as §1

MST4 = MST4 (Homo sapiens (Human), UniProt Q9P289)
Chain of MST4 (Q9P289 whole entry): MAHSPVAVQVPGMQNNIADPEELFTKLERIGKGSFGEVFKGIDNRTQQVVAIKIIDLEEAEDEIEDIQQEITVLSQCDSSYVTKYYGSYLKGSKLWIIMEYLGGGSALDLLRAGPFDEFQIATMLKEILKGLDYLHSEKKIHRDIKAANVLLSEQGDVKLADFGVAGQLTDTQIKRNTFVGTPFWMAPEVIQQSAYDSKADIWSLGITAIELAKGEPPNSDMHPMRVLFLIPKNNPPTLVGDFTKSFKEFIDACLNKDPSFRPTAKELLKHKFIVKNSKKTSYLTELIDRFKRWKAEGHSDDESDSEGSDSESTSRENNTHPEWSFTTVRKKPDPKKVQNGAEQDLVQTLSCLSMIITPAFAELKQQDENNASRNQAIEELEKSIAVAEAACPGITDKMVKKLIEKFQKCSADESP
From the text: as §1

CDC42 BPB (MRCKB) = CDC42 BPB (MRCKB) (Homo sapiens (Human), UniProt Q9Y5S2)
From the text: as §1

TEK (Tie2) = TEK (Tie2) (Homo sapiens (Human), UniProt Q02763)
From the text: as §1

SYK = SYK (Homo sapiens (Human), UniProt P43405)
From the text: as §1

CHEK2 (CHK2) = CHEK2 (CHK2) (Homo sapiens (Human), UniProt O96017)
Chain of CHEK2 (CHK2) (O96017 whole entry): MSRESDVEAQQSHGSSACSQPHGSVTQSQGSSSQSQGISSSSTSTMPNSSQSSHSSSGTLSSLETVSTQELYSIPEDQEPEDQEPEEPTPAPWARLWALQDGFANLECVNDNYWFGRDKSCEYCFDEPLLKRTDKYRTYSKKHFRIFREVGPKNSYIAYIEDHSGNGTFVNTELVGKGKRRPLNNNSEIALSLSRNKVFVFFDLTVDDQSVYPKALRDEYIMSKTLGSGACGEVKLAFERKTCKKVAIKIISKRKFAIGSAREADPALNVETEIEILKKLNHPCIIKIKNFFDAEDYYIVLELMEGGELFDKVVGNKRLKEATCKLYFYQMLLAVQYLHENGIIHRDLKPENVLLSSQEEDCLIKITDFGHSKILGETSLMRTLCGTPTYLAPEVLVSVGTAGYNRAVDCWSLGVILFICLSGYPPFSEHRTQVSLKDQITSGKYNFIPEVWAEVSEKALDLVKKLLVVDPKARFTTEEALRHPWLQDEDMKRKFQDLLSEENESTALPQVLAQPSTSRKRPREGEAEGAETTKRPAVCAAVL
From the text: as §1

AURKB (Aurora B) = AURKB (Aurora B) (Homo sapiens (Human), UniProt Q96GD4)
From the text: as §1

BTK = BTK (Homo sapiens (Human), UniProt Q06187)
From the text: as §1

TBK1 = TBK1 (Homo sapiens (Human), UniProt Q9UHD2)
From the text: as §1

NEK2 = NEK2 (Homo sapiens (Human), UniProt P51955)
From the text: as §1

FLT3 = FLT3 (Homo sapiens (Human), UniProt P36888)
From the text: as §1

CSNK2A1 (CK2 alpha 1) = CSNK2A1 (CK2 alpha 1) (Homo sapiens (Human), UniProt P68400)
From the text: as §1

BRAF V599E = BRAF V599E (Homo sapiens (Human), UniProt P15056, V600E)
From the text: as §1

PRKCB2 (PKC beta II) = PRKCB2 (PKC beta II) (Homo sapiens (Human), UniProt P05771)
Chain of PRKCB2 (PKC beta II) (P05771 other isoform, or with tags, fused parts or gaps): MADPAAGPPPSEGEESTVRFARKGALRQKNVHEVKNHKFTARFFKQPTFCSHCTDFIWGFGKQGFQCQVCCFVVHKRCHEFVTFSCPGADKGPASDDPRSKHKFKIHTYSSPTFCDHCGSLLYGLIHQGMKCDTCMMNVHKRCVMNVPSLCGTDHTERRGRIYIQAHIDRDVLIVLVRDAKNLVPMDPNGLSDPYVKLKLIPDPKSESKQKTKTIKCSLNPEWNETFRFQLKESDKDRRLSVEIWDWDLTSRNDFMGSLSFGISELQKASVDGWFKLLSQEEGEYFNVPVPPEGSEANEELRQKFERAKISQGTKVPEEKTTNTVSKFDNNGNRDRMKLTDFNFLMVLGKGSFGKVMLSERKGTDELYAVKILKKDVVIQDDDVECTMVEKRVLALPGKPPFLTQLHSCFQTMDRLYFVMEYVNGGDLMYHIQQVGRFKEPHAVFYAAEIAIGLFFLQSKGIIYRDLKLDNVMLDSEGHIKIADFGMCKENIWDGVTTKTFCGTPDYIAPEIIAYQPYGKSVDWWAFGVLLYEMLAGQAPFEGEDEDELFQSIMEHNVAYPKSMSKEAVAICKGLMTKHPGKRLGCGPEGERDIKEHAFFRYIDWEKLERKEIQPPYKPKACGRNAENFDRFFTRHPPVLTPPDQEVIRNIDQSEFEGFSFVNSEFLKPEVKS
From the text: as §1

MAP3K8 (COT) = MAP3K8 (COT) (Homo sapiens (Human), UniProt P41279)
Chain of MAP3K8 (COT) (P41279 whole entry): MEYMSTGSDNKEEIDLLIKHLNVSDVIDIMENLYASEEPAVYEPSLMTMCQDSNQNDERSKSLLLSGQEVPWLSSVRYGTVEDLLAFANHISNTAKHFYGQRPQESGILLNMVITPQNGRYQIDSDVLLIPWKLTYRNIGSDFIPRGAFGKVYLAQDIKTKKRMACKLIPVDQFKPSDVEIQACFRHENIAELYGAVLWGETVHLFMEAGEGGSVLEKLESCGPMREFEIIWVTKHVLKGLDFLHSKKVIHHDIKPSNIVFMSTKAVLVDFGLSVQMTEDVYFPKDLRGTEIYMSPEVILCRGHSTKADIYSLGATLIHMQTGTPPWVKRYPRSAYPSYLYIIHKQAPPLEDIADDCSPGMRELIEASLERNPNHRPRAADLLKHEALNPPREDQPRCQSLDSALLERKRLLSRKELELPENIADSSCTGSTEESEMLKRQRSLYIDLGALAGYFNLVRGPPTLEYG
From the text: as §1

IKBKB (IKK beta) = IKBKB (IKK beta) (Homo sapiens (Human), UniProt O14920)
From the text: as §1

JAK2 JH1 JH2 V617F = JAK2 JH1 JH2 V617F (Homo sapiens (Human), UniProt O60674, V617F)
From the text: as §1

FYN = FYN (Homo sapiens (Human), UniProt P06241)
From the text: as §1

ABL2 (Arg) = ABL2 (Arg) (Homo sapiens (Human), UniProt P42684)
Chain of ABL2 (Arg) (P42684 whole entry): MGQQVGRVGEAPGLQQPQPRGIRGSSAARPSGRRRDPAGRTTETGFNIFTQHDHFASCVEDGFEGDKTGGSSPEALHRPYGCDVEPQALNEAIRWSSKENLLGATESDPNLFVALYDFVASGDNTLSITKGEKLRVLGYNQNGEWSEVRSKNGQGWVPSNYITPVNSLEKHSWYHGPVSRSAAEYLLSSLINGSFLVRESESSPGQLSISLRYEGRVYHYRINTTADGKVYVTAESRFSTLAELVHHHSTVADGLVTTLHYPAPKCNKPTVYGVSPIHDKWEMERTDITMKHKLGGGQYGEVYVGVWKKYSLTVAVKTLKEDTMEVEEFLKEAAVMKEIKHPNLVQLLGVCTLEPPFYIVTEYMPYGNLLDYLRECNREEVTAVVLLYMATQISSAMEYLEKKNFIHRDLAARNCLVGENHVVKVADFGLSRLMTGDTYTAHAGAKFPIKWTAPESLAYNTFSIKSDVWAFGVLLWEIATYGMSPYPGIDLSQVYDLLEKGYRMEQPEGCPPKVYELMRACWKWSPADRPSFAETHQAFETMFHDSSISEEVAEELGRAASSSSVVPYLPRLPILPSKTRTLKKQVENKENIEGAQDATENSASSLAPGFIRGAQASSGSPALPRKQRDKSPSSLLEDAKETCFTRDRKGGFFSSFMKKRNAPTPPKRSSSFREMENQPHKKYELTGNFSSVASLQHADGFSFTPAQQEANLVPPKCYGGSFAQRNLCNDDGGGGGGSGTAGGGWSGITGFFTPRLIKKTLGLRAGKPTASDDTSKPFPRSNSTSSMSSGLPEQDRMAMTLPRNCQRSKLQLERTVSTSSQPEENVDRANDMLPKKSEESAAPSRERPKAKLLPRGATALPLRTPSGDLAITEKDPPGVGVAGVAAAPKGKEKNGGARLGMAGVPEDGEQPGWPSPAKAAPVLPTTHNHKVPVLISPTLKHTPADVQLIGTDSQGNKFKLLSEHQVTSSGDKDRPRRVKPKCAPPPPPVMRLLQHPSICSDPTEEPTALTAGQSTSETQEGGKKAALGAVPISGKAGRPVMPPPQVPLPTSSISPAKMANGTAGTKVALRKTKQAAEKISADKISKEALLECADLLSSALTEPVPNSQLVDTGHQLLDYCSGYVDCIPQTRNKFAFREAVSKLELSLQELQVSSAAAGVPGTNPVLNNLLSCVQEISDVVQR
From the text: as §1

CHEK1 (CHK1) = CHEK1 (CHK1) (Homo sapiens (Human), UniProt O14757)
From the text: as §1

EPHA2 = EPHA2 (Homo sapiens (Human), UniProt P29317)
From the text: as §1

FER = FER (Homo sapiens (Human), UniProt P16591)
From the text: as §1

IGF1R = IGF1R (Homo sapiens (Human), UniProt P08069)
From the text: as §1

## Nc1cc(N)c2c(c1)C(=O)NC2=O [RJ1, 4,6-diaminoisoindoline-1,3-dione]
AURKA (Aurora A); read-out: % Inhibition
  inhibition at 10 µM: 43%
AURKA (Aurora A); read-out: % Inhibition class
  inhibition at 10 µM: 40 to 80%
CDK2/cyclin A; read-out: % Inhibition
  inhibition at 10 µM: 9%
CDK2/cyclin A; read-out: % Inhibition class
  inhibition at 10 µM: < 40%
EGFR (ErbB1); read-out: % Inhibition
  inhibition at 10 µM: 12%
EGFR (ErbB1); read-out: % Inhibition class
  inhibition at 10 µM: < 40%
PTK6 (Brk); read-out: % Inhibition
  inhibition at 10 µM: 4%
PTK6 (Brk); read-out: % Inhibition class
  inhibition at 10 µM: < 40%
FRAP1 (mTOR); read-out: % Inhibition
  inhibition at 10 µM: 6%
FRAP1 (mTOR); read-out: % Inhibition class
  inhibition at 10 µM: < 40%
ABL1; read-out: % Inhibition
  inhibition at 10 µM: 59%
ABL1; read-out: % Inhibition class
  inhibition at 10 µM: 40 to 80%
JAK3; read-out: % Inhibition
  inhibition at 10 µM: 28%
JAK3; read-out: % Inhibition class
  inhibition at 10 µM: < 40%
FGFR4; read-out: % Inhibition
  inhibition at 10 µM: 20%
FGFR4; read-out: % Inhibition class
  inhibition at 10 µM: < 40%
ALK; read-out: % Inhibition
  inhibition at 10 µM: 32%
ALK; read-out: % Inhibition class
  inhibition at 10 µM: < 40%
CDK5/p25; read-out: % Inhibition
  inhibition at 10 µM: 27%
CDK5/p25; read-out: % Inhibition class
  inhibition at 10 µM: < 40%
MST4; read-out: % Inhibition
  inhibition at 10 µM: 52%
MST4; read-out: % Inhibition class
  inhibition at 10 µM: 40 to 80%
CDC42 BPB (MRCKB); read-out: % Inhibition
  inhibition at 10 µM: 0%
CDC42 BPB (MRCKB); read-out: % Inhibition class
  inhibition at 10 µM: < 40%
TEK (Tie2); read-out: % Inhibition
  inhibition at 10 µM: 20%
TEK (Tie2); read-out: % Inhibition class
  inhibition at 10 µM: < 40%
SYK; read-out: % Inhibition
  inhibition at 10 µM: 39%
SYK; read-out: % Inhibition class
  inhibition at 10 µM: < 40%
CHEK2 (CHK2); read-out: % Inhibition
  inhibition at 10 µM: 38%
CHEK2 (CHK2); read-out: % Inhibition class
  inhibition at 10 µM: < 40%
AURKB (Aurora B); read-out: % Inhibition
  inhibition at 10 µM: 63%
AURKB (Aurora B); read-out: % Inhibition class
  inhibition at 10 µM: 40 to 80%
BTK; read-out: % Inhibition
  inhibition at 10 µM: 43%
BTK; read-out: % Inhibition class
  inhibition at 10 µM: 40 to 80%
TBK1; read-out: % Inhibition
  inhibition at 10 µM: 18%
TBK1; read-out: % Inhibition class
  inhibition at 10 µM: < 40%
NEK2; read-out: % Inhibition
  inhibition at 10 µM: -20%
NEK2; read-out: % Inhibition class
  inhibition at 10 µM: < 40%
FLT3; read-out: % Inhibition
  inhibition at 10 µM: 29%
FLT3; read-out: % Inhibition class
  inhibition at 10 µM: < 40%
CSNK2A1 (CK2 alpha 1); read-out: % Inhibition
  inhibition at 10 µM: 5%
CSNK2A1 (CK2 alpha 1); read-out: % Inhibition class
  inhibition at 10 µM: < 40%
BRAF V599E; read-out: % Inhibition
  inhibition at 10 µM: 22%
BRAF V599E; read-out: % Inhibition class
  inhibition at 10 µM: < 40%
PRKCB2 (PKC beta II); read-out: % Inhibition
  inhibition at 10 µM: 23%
PRKCB2 (PKC beta II); read-out: % Inhibition class
  inhibition at 10 µM: < 40%
MAP3K8 (COT); read-out: % Inhibition
  inhibition at 10 µM: 29%
MAP3K8 (COT); read-out: % Inhibition class
  inhibition at 10 µM: < 40%
IKBKB (IKK beta); read-out: % Inhibition
  inhibition at 10 µM: 16%
IKBKB (IKK beta); read-out: % Inhibition class
  inhibition at 10 µM: < 40%
JAK2 JH1 JH2 V617F; read-out: % Inhibition
  inhibition at 10 µM: 6%
JAK2 JH1 JH2 V617F; read-out: % Inhibition class
  inhibition at 10 µM: < 40%
FYN; read-out: % Inhibition
  inhibition at 10 µM: 17%
FYN; read-out: % Inhibition class
  inhibition at 10 µM: < 40%
ABL2 (Arg); read-out: % Inhibition
  inhibition at 10 µM: 54%
ABL2 (Arg); read-out: % Inhibition class
  inhibition at 10 µM: 40 to 80%
CHEK1 (CHK1); read-out: % Inhibition
  inhibition at 10 µM: 72%
CHEK1 (CHK1); read-out: % Inhibition class
  inhibition at 10 µM: 40 to 80%
EPHA2; read-out: % Inhibition
  inhibition at 10 µM: 16%
EPHA2; read-out: % Inhibition class
  inhibition at 10 µM: < 40%
FER; read-out: % Inhibition
  inhibition at 10 µM: 23%
FER; read-out: % Inhibition class
  inhibition at 10 µM: < 40%
IGF1R; read-out: % Inhibition
  inhibition at 10 µM: 10%
IGF1R; read-out: % Inhibition class
  inhibition at 10 µM: < 40%
